# pIC50: −log10 of the molar value.
# How the values were obtained:
# SENP1 = biological target: T1, SENP1 (Homo sapiens, UniProt Q9P0U3); assay: SENP1 activity assay; format: biochemical; settings: MBP-SENP1 1.8 nM, 200 nM SUMO-AMC; pre-incubated 30 minutes at 25° C., 60 minutes at 37° C.; sigmoidal fit
# T1 construct: made in house; host or cells: E. coli BL21
# T1 sequence (Q9P0U3 1-644): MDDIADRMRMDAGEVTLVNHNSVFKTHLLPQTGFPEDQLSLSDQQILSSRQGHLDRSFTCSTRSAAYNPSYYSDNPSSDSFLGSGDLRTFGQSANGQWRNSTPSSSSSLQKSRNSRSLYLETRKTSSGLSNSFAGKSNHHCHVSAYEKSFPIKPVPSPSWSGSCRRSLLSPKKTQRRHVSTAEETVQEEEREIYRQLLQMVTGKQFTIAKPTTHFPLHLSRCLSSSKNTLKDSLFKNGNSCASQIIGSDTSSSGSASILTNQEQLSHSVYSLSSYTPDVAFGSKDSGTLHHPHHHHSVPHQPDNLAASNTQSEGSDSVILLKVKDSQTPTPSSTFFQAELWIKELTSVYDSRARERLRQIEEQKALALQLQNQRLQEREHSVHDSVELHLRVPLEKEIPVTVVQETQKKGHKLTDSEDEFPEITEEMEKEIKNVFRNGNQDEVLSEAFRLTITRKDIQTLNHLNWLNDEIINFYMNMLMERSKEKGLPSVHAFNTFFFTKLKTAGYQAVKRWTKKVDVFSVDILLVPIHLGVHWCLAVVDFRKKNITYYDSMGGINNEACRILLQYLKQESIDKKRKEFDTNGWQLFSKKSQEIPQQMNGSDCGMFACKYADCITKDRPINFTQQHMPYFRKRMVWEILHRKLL
# Experimental: The cDNA encoding SENP1 was obtained by PCR amplification from placenta mRNA. SENP1 cDNA was subcloned by PCR into a bacterial expression vector (pMAL-C2X; New England BioLabs, Inc). The sequence was ascertained by sequencing of the entire open reading frame. pMAL-C2-SENP1 was transformed into BL21 cells and grown in LB-ampicillin medium supplemented with glucose (2 g.l^−1). Fusion protein expression was induced by IPTG (0.5 mM). Bacterial cell lysates were harvested and lyzed in lysis buffer (Tris HCl 20 mM pH 7.4; 1 mM EDTA; 200 mM NaCl; 0.5% Triton X-100; 10 % glycerol; Protease Inhibitor Cocktail) followed by sonication. Proteins were affinity purified on amylose affinity resin (New England BioLabs, Inc). Bound materials were extensively washed in wash buffer (20 mM Tris HCl pH 7.4; 200 mM NaCl; 1 mM EDTA; 0.5% Triton X-100; 10% glycerol) and eluted from the resin in 10 mM maltose-containing wash buffer. Proteins were dialyzed in dialysis buffer (Tris HCl pH 7.6 20 mM; NaCl 200 mM; DTT 1 mM; EDTA 1 mM; 10% Glycerol). Proteins purifications were analyzed on 4-12% NuPAGE (Invitrogen).
# MBP-SENP1 was diluted in SENP1 buffer (50 mM Tris HCl; 0.5 mM EDTA; 5 mM DTT; 0.01 % Triton X-100; Bovine Serum Albumin 0.05 mg.ml^−1 pH 7.6). Compounds stocks (100 mM) were stored at −20° C. in DMSO. Compounds were tested at the following final concentrations: 100 μM; 33.3 μM; 11.1 μM; 3.7 μM; 1.23 μM; 412 nM; 137 nM; 45.7 nM; 15.2 nM; 5 nM.
# Reactions were performed as duplicates in Black LJL 96 well plates (HE microplates; Molecular Devices; 20 μl final reaction volume). The substrate concentration for SENP1 was 200 nM SUMO-AMC (Chem. Biol., 2003, 10, p. 837-846) (Boston Biochem). The concentration of the enzyme (SENP1) in specificity assays was 1.8 nM. The concentrations were determined in order to perform specificity assays under initial velocities at fixed substrate concentration. Compounds were pre-incubated with enzymes for 30 minutes at 25° C. Reactions were initiated by addition of substrate to the plates containing the enzymes (+/− compounds) diluted in assay buffer. Reactions were incubated for 60 minutes at 37° C. Reactions were stopped by adding acetic acid (100 mM final). Readings were performed on a Pherastar Fluorescent Reader (BMG). λ Emission 380 nm; λ Excitation=460 nm. Data (mean values +/− standard deviation) were analyzed as % of control (no compound) and plotted as percentage versus the Log of the compound concentration using GraphPad (Prism). Data were fitted to a sigmoidal model (variable slope).
# [1] = system: HCT116 colon cancer cells; assay: HCT116 cell viability and proliferation assay (MTS); format: cell-based; settings: Homo sapiens, HCT-116, 72 hours incubation, mean of three independent experiments, read-out: HCT116 GI50 D3
# Experimental: HCT116 colon cancer cells were obtained from ATCC (American Type Culture Collection), and maintained in Mc Coy's 5A medium containing 10% FBS, 3 mM glutamine and 1% penicillin/streptomycin. Cells were incubated at 37° C. in a humidified atmosphere containing 5% CO2.
# (§1) Cell viability was assayed using the MTS technique in 96-well culture plates (CellTiter 96® Aqueous Non-Radioactive Cell Proliferation Assay, Promega) according to the manufacturer's instructions. MTS (3-(4,5-dimethyl-thiazol-2-yl)-5-(3-carboxymethoxyphenyl)-2-(4-sulfophenyl)-2H-tetra-zolium) is a MTT-derived tetrazolium that is reduced in metabolically active cells into a soluble, cell-permeant formazan. The amount of formazan, detected by its absorbance at 492 nm is proportional to the number of living, metabolically active cells.
# (§2) 10^3 HCT116 cells were seeded per well. 24 hours later, the medium was changed and the cells treated in triplicate with the following concentrations of each compound: 10 μM-3.33 μM-1.11 μM-370 nM-123 nM-41 nM-14 nM and 5 nM. The compounds were diluted in 100% DMSO, whose final concentration on cells was kept at 0.5%.
# (§3) Cells were incubated with the compounds for 72 hours, and their viability then assayed by the addition of MTS for 2 hours. Absorbance at 492 nm was measured directly from the 96-well culture plates. G150 (Growth Inhibition 50) concentrations for each compound were calculated using a sigmoidal variable slope fit (Prism 4.0, Graphpad Softwares). Values represent mean of three independent experiments.
# [2] = system: PC-3 prostate cancer cells; assay: PC3 cell viability and proliferation assay (MTS); format: cell-based; settings: Homo sapiens, PC-3, 72 hours incubation, mean of three independent experiments, read-out: PC3 GI50 D3
# Experimental: PC-3 prostate cancer cells were obtained from ATCC, and maintained in F-12K medium containing 7% FBS and 1% penicillin/streptomycin. Cells were incubated at 37° C. in a humidified atmosphere containing 5% CO2.
# as §1, with “(3-(4,5-dimethyl-thiazol-2-yl)-5-(3-carboxymethoxyphenyl)-2-(4-sulfophenyl)-2H-tetrazolium)” for “(3-(4,5-dimethyl-thiazol-2-yl)-5-(3-carboxymethoxyphenyl)-2-(4-sulfophenyl)-2H-tetra-zolium)”
# as §2, with “2×10^3 PC3” for “10^3 HCT116”
# as §3, with “GI50” for “G150”
# Caspase 3 = biological target: T2, Caspase 3 (Homo sapiens, UniProt P42574); assay: Caspase 3 activity assay; format: biochemical; settings: 500 nM Ac-DEVD-AMC, 3.2 nM enzyme; pre-incubated 30 minutes at 25° C., 60 minutes at 37° C.; sigmoidal fit
# T2 sequence (P42574 29-175 limits assumed): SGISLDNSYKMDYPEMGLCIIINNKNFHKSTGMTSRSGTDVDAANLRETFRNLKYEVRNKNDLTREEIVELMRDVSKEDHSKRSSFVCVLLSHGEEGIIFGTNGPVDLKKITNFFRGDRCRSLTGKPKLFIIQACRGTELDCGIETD
# T2 sequence (P42574 176-277 limits assumed): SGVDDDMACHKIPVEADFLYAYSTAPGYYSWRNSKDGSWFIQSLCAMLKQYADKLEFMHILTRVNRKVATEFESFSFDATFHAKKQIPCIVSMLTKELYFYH
# Experimental: Caspase 3 was diluted in Caspase 3 buffer (100 mM Hepes pH 7.5; 10% sucrose; 0.1% CHAPS). Compounds stocks (100 mM) were stored at −20° C. in DMSO. Compounds were tested at the following final concentrations: 100 μM; 33.3 μM; 11.1 μM; 3.7 μM; 1.23 μM; 412 nM; 137 nM; 45.7 nM; 15.2 nM; 5 nM. Reactions were performed as duplicates in Black LJL 96 well plates (HE microplates; Molecular Devices; 20 μl final reaction volume). The substrate concentration for caspase 3 specificity assay was 500 nM (Ac-DEVD-AMC; Promega). The concentration of the enzyme (Caspase 3) in specificity assays was 3.2 nM. The concentrations were determined in order to perform specificity assays under initial velocities at fixed substrate concentration. Compounds were pre-incubated with enzymes for 30 minutes at 25° C. Reactions were initiated by addition of substrate to the plates containing the enzymes (+/− compounds) diluted in assay buffer. Reactions were incubated for 60 minutes at 37° C. Reactions were stopped by adding acetic acid (100 mM final). Readings were performed on a Pherastar Fluorescent Reader (BMG). δ Emission 380 nm; δ Excitation=460 nm. Data (mean values +/− standard deviation) were analyzed as % of control (no compound) and plotted as percentage versus the Log of the compound concentration using GraphPad (Prism). Data were fitted to a sigmoidal model (variable slope).
pIC50 (SENP1),GI50 [1],GI50 [2],pIC50 (Caspase 3),Compound
< 4.00,1300 nM,7090 nM,–,"Cc1nnc2nc3c(nn12)C(=O)c1ccccc1-3 [Example 1b/A, 1-Methyl-2,3,4,10,10a-pentaaza-cyclopenta[b]fluoren-9-one]"
–,981 nM,3170 nM,6.67,"Nc1nnc2nc3c(nn12)-c1ccccc1C3=O [Example 1c/B, 3-Amino-1,2,3a,4,10-pentaaza-cyclopenta[b]fluoren-9-one]"
< 4.00,2050 nM,4000 nM,–,"O=C1c2ccccc2-c2nc3nnc(CO)n3nc21 [Example 1h/A, 1-Hydroxymethyl-2,3,4,10,10a-pentaaza-cyclopenta[b]fluoren-9-one]"

# Reference: US20090181972A1, “Novel Inhibitors of Cysteine Proteases, the Pharmaceutical Compositions Thereof and their Therapeutic Applications” (priority 2005, published 2009)
